Experimental data reported in patent publication US9296723B2, “NAMPT inhibitors” (AbbVie Inc., priority 2012, dated 2016).

Experiments:
PC3 cells = experiment: NAMPT Cell Proliferation Assay (Cell Titer Glo); type: cell-based; conditions: Homo sapiens, PC-3, 120 h, incubated 5 days, cell viability
In short: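 PC3 cells (500/well, RPMI with 10% heat-inactivated FBS) were exposed to 10-fold compound dilutions from […] for 5 days at 37 °C, 5% CO2. Viability was read with Cell Titer Glo; IC50 from sigmoidal fit of percent inhibition.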

NAMPT [1] = biological target: T1, NAMPT (Homo sapiens, UniProt P43490); experiment: TR-FRET Binding Assay of NAMPT with PRPP; conditions: 2 nM NAMPT, 2 nM probe, 200 µM PRPP and 2.5 mM ATP, equilibrated 16 hours
In short: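 TR-FRET probe displacement with 2 nM NAMPT, 2 nM probe and 1 nM Tb-anti-His antibody in the presence of 200 µM PRPP and 2.5 mM ATP, 2% DMSO (all final). Equilibrated 16 hours before reading to permit possible enzymatic modification of compounds.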

NAMPT [2] = biological target: T1, NAMPT; experiment: Time-Resolved Fluorescence Resonance Energy Transfer (TR-FRET) Binding Assay of NAMPT; conditions: 6.8 nM NAMPT, 200 nM probe, equilibrated 3 hours, no substrates
In short: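 Compound was mixed with enzyme, probe and antibody and equilibrated 3 h at room temperature. TR-FRET read at Ex 337 nm, Em 520/495 nm. Ratios were normalized to controls and fitted to a four-parameter logistic equation for IC50.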

T1 sequence (P43490 whole entry): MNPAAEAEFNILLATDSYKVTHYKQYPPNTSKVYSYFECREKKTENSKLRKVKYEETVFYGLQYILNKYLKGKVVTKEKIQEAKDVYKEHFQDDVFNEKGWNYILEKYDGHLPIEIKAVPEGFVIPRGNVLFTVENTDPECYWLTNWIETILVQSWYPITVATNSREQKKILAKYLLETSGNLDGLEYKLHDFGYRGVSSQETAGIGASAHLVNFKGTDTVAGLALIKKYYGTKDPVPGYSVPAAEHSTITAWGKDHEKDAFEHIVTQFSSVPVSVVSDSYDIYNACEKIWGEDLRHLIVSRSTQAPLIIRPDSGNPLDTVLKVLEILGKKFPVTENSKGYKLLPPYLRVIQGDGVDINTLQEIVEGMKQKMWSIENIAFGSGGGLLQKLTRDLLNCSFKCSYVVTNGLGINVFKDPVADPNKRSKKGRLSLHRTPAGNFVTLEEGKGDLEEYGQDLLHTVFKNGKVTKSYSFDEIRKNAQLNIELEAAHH

Row | Compound | IC50 (PC3 cells) [nM] | IC50 (NAMPT [1]) [nM] | IC50 (NAMPT [2]) [nM]
1 | O=C(Nc1ccc(C2CN(C(=O)c3ccccc3)C2)cc1)N1CC(c2cccnc2)C1 [Example 107, N-[4-(1-benzoylazetidin-3-yl)phenyl]-3-(pyridin-3-yl)azetidine-1-carboxamide] | 5.99 | 0.342 | 12.3
2 | O=C(CC1CC2CCC1C2)N1CCC(Oc2ccc(NC(=O)N3CC(c4cccnc4)C3)cc2)C1 (stereo not drawn) [Example 299, N-(4-{[1-(bicyclo[2.2.1]hept-2-ylacetyl)pyrrolidin-3-yl]oxy}phenyl)-3-(pyridin-3-yl)azetidine-1-carboxamide] | 14.6 | 0.451 | 64.9
3 | O=C(Nc1ccc(C2CCN(C(=O)C3CCCC3)C2)cc1)N1CC(c2cccnc2)C1 (stereo not drawn) [Example 295, N-{4-[1-(cyclopentylcarbonyl)pyrrolidin-3-yl]phenyl}-3-(pyridin-3-yl)azetidine-1-carboxamide] | 66.5 | 0.272 | 50.7
4 | O=C(Nc1ccc(C2=CCN(C(=O)C3CC3)CC2)cc1)N1CC(c2cccnc2)C1 [Example 25, N-{4-[1-(cyclopropylcarbonyl)-1,2,3,6-tetrahydropyridin-4-yl]phenyl}-3-(pyridin-3-yl)azetidine-1-carboxamide] | 27.1 | 0.362 | 37.4
5 | CC[C@H](C)C(=O)N1CC(Oc2ccc(NC(=O)N3CC(c4cccnc4)C3)cc2)C1 [Example 1, N-[4-({1-[(2S)-2-methylbutanoyl]azetidin-3-yl}oxy)phenyl]-3-(pyridin-3-yl)azetidine-1-carboxamide] | 11.7 | 0.873 | 24.9
6 | O=C(Nc1ccc(O[C@@H]2CCN(C(=O)c3ccoc3)C2)cc1)N1CC(c2cccnc2)C1 [Example 303, N-(4-{[(3R)-1-(furan-3-ylcarbonyl)pyrrolidin-3-yl]oxy}phenyl)-3-(pyridin-3-yl)azetidine-1-carboxamide] | 13.5 | 0.595 | 40.5
7 | O=C(Nc1ccc(O[C@@H]2CCN(C(=O)C3CCCC3)C2)cc1)N1CC(c2cccnc2)C1 [Example 334, N-(4-{[(3R)-1-(cyclopentylcarbonyl)pyrrolidin-3-yl]oxy}phenyl)-3-(pyridin-3-yl)azetidine-1-carboxamide] | 32.4 | 0.449 | 94.9
8 | CN1CCN(CC(=O)N2CC[C@@H](Oc3ccc(NC(=O)N4CC(c5cccnc5)C4)cc3)C2)CC1 [Example 312, N-[4-({(3R)-1-[(4-methylpiperazin-1-yl)acetyl]pyrrolidin-3-yl}oxy)phenyl]-3-(pyridin-3-yl)azetidine-1-carboxamide] | 211 | 0.29 | 311
9 | CC1(C(=O)N2CC[C@@H](Oc3ccc(NC(=O)N4CC(c5cccnc5)C4)cc3)C2)CC1 [Example 309, N-[4-({(3R)-1-[(1-methylcyclopropyl)carbonyl]pyrrolidin-3-yl}oxy)phenyl]-3-(pyridin-3-yl)azetidine-1-carboxamide] | 11.1 | 0.262 | 32.8
10 | CC(C)(C)C(=O)N1CCC(Oc2ccc(NC(=O)N3CC(c4cccnc4)C3)cc2)CC1 [Example 44, N-(4-{[1-(2,2-dimethylpropanoyl)piperidin-4-yl]oxy}phenyl)-3-(pyridin-3-yl)azetidine-1-carboxamide] | 38.5 | 0.315 | 44.6
11 | CC(C)(O)C(=O)N1CCC(c2ccc(NC(=O)N3CC(c4cccnc4)C3)cc2)CC1 [Example 51, N-{4-[1-(2-hydroxy-2-methylpropanoyl)piperidin-4-yl]phenyl}-3-(pyridin-3-yl)azetidine-1-carboxamide] | 1.78 | 0.303 | 17.2
12 | O=C(Nc1ccc(C2CN(C(=O)[C@H]3CCCO3)C2)cc1)N1CC(c2cccnc2)C1 [Example 103, 3-(pyridin-3-yl)-N-(4-{1-[(2R)-tetrahydrofuran-2-ylcarbonyl]azetidin-3-yl}phenyl)azetidine-1-carboxamide] | 98.1 | 0.287 | 296
13 | O=C(Nc1ccc(C2CN(C(=O)c3cccs3)C2)cc1)N1CC(c2cccnc2)C1 [Example 222, 3-(pyridin-3-yl)-N-{4-[1-(thiophen-2-ylcarbonyl)azetidin-3-yl]phenyl}azetidine-1-carboxamide] | 11.9 | 0.183 | 10.7
14 | CCCC(C)C(=O)N1CC(Oc2ccc(NC(=O)N3CC(c4cccnc4)C3)cc2)C1 (stereo not drawn) [Example 136, N-(4-{[1-(2-methylpentanoyl)azetidin-3-yl]oxy}phenyl)-3-(pyridin-3-yl)azetidine-1-carboxamide] | 7.42 | 0.544 | 15
15 | O=C(CCC(F)(F)F)N1CC(Oc2ccc(NC(=O)N3CC(c4cccnc4)C3)cc2)C1 [Example 126, 3-(pyridin-3-yl)-N-(4-{[1-(4,4,4-trifluorobutanoyl)azetidin-3-yl]oxy}phenyl)azetidine-1-carboxamide] | 7.38 | 0.401 | 14.4
16 | CC(C)CC(=O)N1CC(Oc2ccc(NC(=O)N3CC(c4cccnc4)C3)cc2)C1 [Example 132, N-(4-{[1-(3-methylbutanoyl)azetidin-3-yl]oxy}phenyl)-3-(pyridin-3-yl)azetidine-1-carboxamide] | 7.77 | 0.634 | 19.1
17 | CCC(C)CC(=O)N1CCC(Oc2ccc(NC(=O)N3CC(c4cccnc4)C3)cc2)CC1 (stereo not drawn) [Example 41, N-(4-{[1-(3-methylpentanoyl)piperidin-4-yl]oxy}phenyl)-3-(pyridin-3-yl)azetidine-1-carboxamide] | 69.8 | 0.448 | 76.8
18 | CC1(C(=O)N2CCC(c3ccc(NC(=O)N4CC(c5cccnc5)C4)cc3)C2)CCCCC1 (stereo not drawn) [Example 276, N-(4-{1-[(1-methylcyclohexyl)carbonyl]pyrrolidin-3-yl}phenyl)-3-(pyridin-3-yl)azetidine-1-carboxamide] | 10 | 0.347 | 12.4
19 | CC(=O)N1CCC(c2ccc(NC(=O)N3CC(c4cccnc4)C3)cc2)CC1 [Example 183, N-[4-(1-acetylpiperidin-4-yl)phenyl]-3-(pyridin-3-yl)azetidine-1-carboxamide] | 63.3 | 0.38 | 22
20 | O=C(NCC1CCOC1)c1ccc(NC(=O)N2CC(c3cccnc3)C2)cc1 (stereo not drawn) [Example 49, 3-(pyridin-3-yl)-N-{4-[(tetrahydrofuran-3-ylmethyl)carbamoyl]phenyl}azetidine-1-carboxamide] | 80.1 | 0.245 | 150
21 | CC[C@H](C)C(=O)N1CC[C@@H](Oc2ccc(NC(=O)N3CC(c4cccnc4)C3)cc2)C1 [Example 86, N-[4-({(3R)-1-[(2S)-2-methylbutanoyl]pyrrolidin-3-yl}oxy)phenyl]-3-(pyridin-3-yl)azetidine-1-carboxamide] | 5.48 | 0.244 | 27.4
22 | CCC(C)CC(=O)N1CCC(c2ccc(NC(=O)N3CC(c4cccnc4)C3)cc2)C1 (stereo not drawn) [Example 259, N-{4-[1-(3-methylpentanoyl)pyrrolidin-3-yl]phenyl}-3-(pyridin-3-yl)azetidine-1-carboxamide] | 64.7 | 0.452 | 54.5
